US3984547A, “Veterinary feedstuffs” (Bayer Aktiengesellschaft, priority 1971, dated 1976)
Where two headings read alike, the source gives them in different places.

System: Escherichia coli C 165
Assay: ED100 in mice after intraperitoneal infection, Table 3
Assay type: in vivo
Conditions: read-out: effective 100% dose (ED100)
Experimental: In animal experiments on mice, the effective 100% dose (ED100) in mg/Kg was determined for certain compounds of the invention after intraperitoneal infection and subcutaneous (s.c.) or oral (p.o.) administration of the preparation.

## CN(C)N=Cc1c(C(=O)O)[n+]([O-])c2ccccc2[n+]1[O-] [Example 14]
C165, oral (p.c. [sic])
  ED100: 100 mg/kg
C165, sc, s.c.
  ED100: 50 mg/kg
